Tests used:
[1] = tested on: MCF7; assay: In vitro cytotoxicity, SRB assay, breast cancer cell line MCF7; format: cell-based, human; conditions: Homo sapiens, read-out: % of growth inhibition; for inhibition at 10 µM: 48 h exposure
Text: (§1) The benzothiazole hybrids has been tested against seven human tumor cell lines derived from six cancer types (lung cancer, colon cancer, CNS cancer, ovarian cancer, prostate cancer and breast cancer). For these compounds results are expressed as percent of cell growth inhibition relative to that of untreated control cells.

[2] = tested on: IGR-OV-1; assay: In vitro cytotoxicity, SRB assay, ovarian cancer cell line IGR-OV-1; format: cell-based, human; conditions: Homo sapiens, IGROV-1, IGR-OV-1 (ovarian), read-out: % of growth inhibition; for inhibition at 10 µM: 48 h exposure
Text: as §1

[3] = tested on: PC-3; assay: In vitro cytotoxicity, SRB assay, prostate cancer cell line PC-3; format: cell-based, human; conditions: Homo sapiens, PC-3 (prostate), read-out: % of growth inhibition; for inhibition at 10 µM: 48 h exposure
Text: as §1

[4] = tested on: SF-295; assay: In vitro cytotoxicity, SRB assay, CNS cancer cell line SF-295; format: cell-based, human; conditions: Homo sapiens, SF-295 (CNS), read-out: % of growth inhibition; for inhibition at 10 µM: 48 h exposure
Text: as §1

[5] = tested on: Colo-205; assay: In vitro cytotoxicity, SRB assay, colon cancer cell line Colo-205; format: cell-based, human; conditions: Homo sapiens, Colo-205 (colon), read-out: % of growth inhibition
Text: as §1

[6] = tested on: human tumor cell lines; assay: In vitro anticancer activity, panel of seven human tumor cell lines (SRB assay); format: cell-based; conditions: for inhibition at 10 µM: Homo sapiens, range over the cell lines, exposure period of at least 48 hrs, read-out: percentage growth inhibition for invitro anticancer activity; for cytotoxic activity in words: various human tumour cell lines
Method: as §1, with “cells. A protocol of 48 h continuous drug exposure has been used, and a sulforhodamine B (SRB) protein assay was used to estimate cell viability or growth.” for “cells.”
(§2) The compounds 9b, 9h, 9m, 9r, 15c, 15h, 15m, 15r, 10b, 10h, 10m, 10r, 16c, 16h and 16m were evaluated for in vitro anticancer activity against seven human tumor cells derived from six cancer types (lung cancer, colon cancer, CNS cancer, ovarian cancer, prostate cancer and breast cancer) at concentration of 10 μM and the results are shown in Table 1.

[7] = tested on: A-549; assay: In vitro cytotoxicity, SRB assay, lung cancer cell line A-549; format: cell-based, human; conditions: Homo sapiens, A549, A-549 (lung), read-out: % of growth inhibition; for inhibition at 10 µM: 48 h exposure
Text: as §1

[8] = tested on: SW-620; assay: In vitro cytotoxicity, SRB assay, colon cancer cell line SW-620; format: cell-based; conditions: Homo sapiens, SW-620 (colon), 48 h exposure, read-out: % of growth inhibition
Method: as §1, with “cells. A protocol of 48 h continuous drug exposure has been used, and a sulforhodamine B (SRB) protein assay was used to estimate cell viability or growth.” for “cells.”
as §2

SMILES	inhibition at 10 µM [1] [%]	inhibition at 10 µM [2] [%]	inhibition at 10 µM [3] [%]	inhibition at 10 µM [4] [%]	inhibition at 10 µM ([5]; 10 μM, 48 h exposure) [%]	inhibition at 10 µM [6] [%]	inhibition at 10 µM [7] [%]	inhibition at 10 µM [8] [%]	cytotoxic activity in words [6]	inhibition at 1 µM ([1]; reference drug at 1 μM) [%]	inhibition at 1 µM ([2]; reference drug at 1 μM) [%]	inhibition at 1 µM ([3]; reference drug at 1 μM) [%]	inhibition at 1 µM ([4]; reference drug at 1 μM) [%]	inhibition at 1 µM ([5]; reference drug at 1 μM) [%]	inhibition at 1 µM ([7]; reference drug at 1 μM) [%]
COc1cc(-c2nc3ccccc3s2)ccc1OCCCOc1cc(/C=C\c2cc(OC)c(OC)c(OC)c2)ccc1OC [Compound 9b, 2-[3-methoxy-4-(3-{2-methoxy-5-[(Z)-2-(3,4,5-trimethoxyphenyl)-1-ethenyl]phenoxy}propoxy)phenyl]-1,3-benzothiazole]	57	54	78	53	16	1 to 100	69	–	–	–	–	–	–	–	–
COc1ccc(/C=C\c2cc(OC)c(OC)c(OC)c2)cc1OCCCCOc1cccc(-c2nc3ccccc3s2)c1 [Compound 9r, 2-[3-(4-{2-methoxy-5-[(Z)-2-(3,4,5-trimethoxyphenyl)-1-ethenyl]phenoxy}butoxy)phenyl]-1,3-benzothiazole]	52	48	59	71	–	1 to 100	59	22	–	–	–	–	–	–	–
COc1cc(-c2nc3ccccc3s2)ccc1OCCCOc1cc(/C=C/C(=O)c2cc(OC)c(OC)c(OC)c2)ccc1OC [Compound 10b, (E)-3-(3-{3-[4-(1,3-benzothiazol-2-yl)-2-methoxyphenoxy]propoxy}-4-methoxyphenyl)-1-(3,4,5-trimethoxyphenyl)-2-propen-1-one]	19	21	5	51	–	1 to 100	66	0	–	–	–	–	–	–	–
COc1ccc(/C=C/C(=O)c2cc(OC)c(OC)c(OC)c2)cc1OCCCCOc1ccc(-c2nc3ccccc3s2)cc1 [Compound 10h, (E)-3-(3-{4-[4-(1,3-benzothiazol-2-yl)phenoxy]butoxy}-4-methoxyphenyl)-1-(3,4,5-trimethoxyphenyl)-2-propen-1-one]	9	17	6	38	–	1 to 100	31	2	–	–	–	–	–	–	–
COc1ccc(/C=C/C(=O)c2cc(OC)c(OC)c(OC)c2)cc1OCCCCOc1cc(-c2nc3ccccc3s2)ccc1OC [Compound 10m, (E)-3-(3-{4-[5-(1,3-benzothiazol-2-yl)-2-methoxyphenoxy]butoxy}-4-methoxyphenyl)-1-(3,4,5-trimethoxyphenyl)-2-propen-1-one]	24	17	0	14	–	1 to 100	7	27	–	–	–	–	–	–	–
COc1ccc(/C=C/C(=O)c2cc(OC)c(OC)c(OC)c2)cc1OCCCCOc1cccc(-c2nc3ccccc3s2)c1 [Compound 10r, (E)-3-(3-{4-[3-(1,3-benzothiazol-2-yl)phenoxy]butoxy}-4-methoxyphenyl)-1-(3,4,5-trimethoxyphenyl)-2-propen-1-one]	14	0	1	21	–	1 to 100	41	0	–	–	–	–	–	–	–
COc1cc(-c2nc3ccccc3s2)ccc1OCCCCN1CCN(CCCCOc2cc(/C=C\c3cc(OC)c(OC)c(OC)c3)ccc2OC)CC1 [Compound 15c, 2-[3-methoxy-4-({4-[4-(4-{2-methoxy-5-[(Z)-2-(3,4,5-trimethoxyphenyl)-1-ethenyl]phenoxy}butyl)piperazino]butyl}oxy)phenyl]-1,3-benzothiazole]	95	95	53	99	–	1 to 100	88	86	increase in activity	–	–	–	–	–	–
COc1ccc(/C=C\c2cc(OC)c(OC)c(OC)c2)cc1OCCCCN1CCN(CCCCOc2ccc(-c3nc4ccccc4s3)cc2)CC1 [Compound 15h, 2-[4-({4-[4-(4-{2-methoxy-5-[(Z)-2-(3,4,5-trimethoxyphenyl)-1-ethenyl]phenoxy}butyl)piperazino]butyl}oxy)phenyl]-1,3-benzothiazole]	93	83	96	98	–	1 to 100	91	72	increase in activity	–	–	–	–	–	–
COc1ccc(/C=C\c2cc(OC)c(OC)c(OC)c2)cc1OCCCCN1CCN(CCCCOc2cc(-c3nc4ccccc4s3)ccc2OC)CC1 [Compound 15m, 2-[4-methoxy-3-({4-[4-(4-{2-methoxy-5-[(Z)-2-(3,4,5-trimethoxyphenyl)-1-ethenyl]phenoxy}butyl)piperazino]butyl}oxy)phenyl]-1,3-benzothiazole]	97	99	60	98	–	1 to 100	100	99	increase in activity	–	–	–	–	–	–
COc1ccc(/C=C\c2cc(OC)c(OC)c(OC)c2)cc1OCCCCN1CCN(CCCCOc2cccc(-c3nc4ccccc4s3)c2)CC1 [Compound 15r, 2-[3-({4-[4-(4{-2-methoxy-5-[(Z)-2-(3,4,5-trimethoxyphenyl)-1-ethenyl]phenoxy}butyl)piperazino]butyl}oxy)phenyl]-1,3-benzothiazole]	88	92	70	98	–	1 to 100	96	99	increase in activity	–	–	–	–	–	–
COc1cc(-c2nc3ccccc3s2)ccc1OCCCCN1CCN(CCCCOc2cc(/C=C/C(=O)c3cc(OC)c(OC)c(OC)c3)ccc2OC)CC1 [Compound 16c, (E)-3-(3{-[4-(4-{4-[4-(1,3-benzothiazol-2-yl)-2-methoxyphenoxy]butyl}piperazino)butyl]oxy}-4-methoxyphenyl)-1-(3,4,5-trimethoxyphenyl)-2-propen-1-one]	69	67	24	24	–	1 to 100	58	0	–	–	–	–	–	–	–
COc1ccc(/C=C/C(=O)c2cc(OC)c(OC)c(OC)c2)cc1OCCCCN1CCN(CCCCOc2ccc(-c3nc4ccccc4s3)cc2)CC1 [Compound 16h, (E)-3-(3{-[4-(4-{4-[4-(1,3-benzothiazol-2-yl)phenoxy]butyl}piperazino)butyl]oxy}-4-methoxyphenyl)-1-(3,4,5-trimethoxyphenyl)-2-propen-1-one]	84	73	67	63	–	1 to 100	59	0	–	–	–	–	–	–	–
COc1ccc(/C=C/C(=O)c2cc(OC)c(OC)c(OC)c2)cc1OCCCCN1CCN(CCCCOc2cc(-c3nc4ccccc4s3)ccc2OC)CC1 [Compound 16m, (E)-3-(3{-[4-(4-{4-[5-(1,3-benzothiazol-2-yl)-2-methoxyphenoxy]butyl}piperazino)butyl]oxy}-4-methoxyphenyl)-1-(3,4,5-trimethoxyphenyl)-2-propen-1-one]	57	85	2	15	–	1 to 100	100	0	–	–	–	–	–	–	–
CC(=O)O[C@H]1C(=O)[C@@]2(C)[C@H]([C@H](OC(=O)c3ccccc3)[C@]3(O)C[C@H](OC(=O)[C@H](O)[C@@H](NC(=O)c4ccccc4)c4ccccc4)C(C)=C1C3(C)C)[C@]1(OC(C)=O)CO[C@@H]1C[C@@H]2O [Paclitaxel, reference compound]	–	–	–	–	–	–	–	–	–	59	44	35	59	95	62
